Reference: patent US20040166092A1, “Use of viral vectors and charged molecules for gene therapy” (priority 1999, published 2004)

How the values were obtained:
CT-26 flank tumors = assay: CT-26 flank tumor model; format: in vivo, mouse; conditions: acyclovir 2 mg/ml with dextran sulfate 100 μg/ml and 1×10^7 pfu NV1020
Experimental: Different modes of delivery were also examined to determine the efficacy of systemic delivery of HSV on tumor growth. Flank tumors were established in mice by subcutaneous injection of CT-26 cancer cells. The mice were then administered 1×10^7 pfu of NV1020 either intratumorally or systemically by tail vein. Tumor growth rates were then assessed by measuring the tumor volume biweekly (FIG. 8).
Mice were anesthetized using ketamine (70 mg/kg) and xylazine (10 mg/kg). CT-26 cells (5×10^4 cells resuspended in 100 μl of PBS) were injected subcutaneously into the right flank of each mouse, using a 26-gauge needle. The cells formed a tumor, which was allowed to grow to a size of approximately 100 to 150 mm^3. Injections of the desired therapy were then initiated. Tumor volumes were generally measured biweekly. The animals were sacrificed once the tumor volume reached 1500 mm^3.
Tail vein administration of the desired therapy was carried out using techniques commonly known in the art.

CT-26 cells = assay: CT-26 morphology and cell growth in culture; format: cell-based; conditions: 72 hours
Experimental: To better understand the in vivo effects of dextran sulfate or dextran in combination with HSV, the effects of dextran sulfate on cell morphology and cell proliferation were evaluated in a cell culture model. CT-26 cells were treated with 100 μg/ml of dextran sulfate or were left untreated. After 48 hours, cell numbers and morphology were examined (FIG. 15). […] In the presence of dextran sulfate, CT-26 cells appeared more evenly spread across tissue culture dishes (panel B) as compared to the “clumped” appearance of CT-26 cells in the absence of dextran sulfate (panel A).
The effect of dextran sulfate, acyclovir, or a combination of both dextran and acyclovir were also examined for their effects on cell growth in vitro. Cultured CT-26 cells were administered dextran sulfate (100 μg/ml), acyclovir (2 mg/ml), both dextran sulfate and acyclovir, or were left untreated (control). CT-26 cells were counted at various time points following addition each formulation.

Structure (SMILES): Nc1nc2c(ncn2COCCO)c(=O)[nH]1 [acyclovir]
- tumor growth (CT-26 flank tumors): reduced tumor growth
- growth of the cells (number of cells/ml) compared to untreated cells (CT-26 cells; acyclovir 2 mg/ml together with dextran sulfate 100 μg/ml): did not vary significantly
- growth of the cells (number of cells/ml) compared to untreated cells (CT-26 cells; acyclovir 2 mg/ml): did not vary significantly
